The assay deals with Pu22T14T23 (DNA, G4, none (G-to-T mutations at positions 14 and 23)) TGAGGGTGGGTAGGGTGGGTAA
Nature of the assay: CD melting at 262 nm. The following applies: K+ (20 mM KCl); 5 mM phosphate pH 7.0; 1 µM DNA, 3 µM ligand; Tm 77.4 to 80.6.

Regarding `CN(C)CCNC(=O)c1cccn2c(=O)c3cc4ccccc4cc3nc12`, the ΔTm entry was “+3.2 °C”. With `CN(C)CCNC(=O)c1cccn2c(=O)c3sc4ccccc4c3nc12` the entry was “+3.2 °C”.

For the origin of these results see article PMC6801708 (2019).
